Tests used:
Cytochrome P450 2D6 = Cytochrome P450 2D6 (Homo sapiens, UniProt P10635); experiment: Inhibition of CYP2D6; format: ADME
Cytochrome P450 1A2 = Cytochrome P450 1A2 (Homo sapiens, UniProt P05177); experiment: Inhibition of CYP1A2; format: ADME
Cytochrome P450 2C19 = Cytochrome P450 2C19 (Homo sapiens, UniProt P33261); experiment: Inhibition of CYP2C19; format: ADME
Cytochrome P450 2C9 = Cytochrome P450 2C9 (Homo sapiens, UniProt P11712); experiment: Inhibition of CYP2C9; format: ADME
Cytochrome P450 3A4 = Cytochrome P450 3A4 (Homo sapiens, UniProt P08684); experiment: Inhibition of CYP3A4; format: ADME
Chain of Cytochrome P450 3A4 (P08684 whole entry): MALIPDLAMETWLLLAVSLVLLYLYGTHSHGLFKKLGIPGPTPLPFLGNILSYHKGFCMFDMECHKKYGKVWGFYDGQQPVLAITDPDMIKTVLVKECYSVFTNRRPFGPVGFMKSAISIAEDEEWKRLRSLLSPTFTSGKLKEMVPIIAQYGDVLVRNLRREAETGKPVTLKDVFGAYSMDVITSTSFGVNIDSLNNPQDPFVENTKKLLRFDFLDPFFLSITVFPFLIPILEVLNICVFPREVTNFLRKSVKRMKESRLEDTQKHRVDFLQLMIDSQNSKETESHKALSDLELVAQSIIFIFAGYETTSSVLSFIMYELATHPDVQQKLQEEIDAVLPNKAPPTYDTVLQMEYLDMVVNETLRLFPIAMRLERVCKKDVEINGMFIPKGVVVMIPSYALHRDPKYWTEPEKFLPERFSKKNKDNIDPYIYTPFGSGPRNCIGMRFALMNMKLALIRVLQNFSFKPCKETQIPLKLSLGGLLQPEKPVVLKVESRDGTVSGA

[1] = biological target: Neuronal acetylcholine receptor subunit alpha-7 (Rattus norvegicus, UniProt Q05941); experiment: Displacement of [125I]alpha-BTX from alpha-7 nAChR in rat hippocampus membrane; format: cell membranes
Chain of Neuronal acetylcholine receptor subunit alpha-7 (Q05941 whole entry): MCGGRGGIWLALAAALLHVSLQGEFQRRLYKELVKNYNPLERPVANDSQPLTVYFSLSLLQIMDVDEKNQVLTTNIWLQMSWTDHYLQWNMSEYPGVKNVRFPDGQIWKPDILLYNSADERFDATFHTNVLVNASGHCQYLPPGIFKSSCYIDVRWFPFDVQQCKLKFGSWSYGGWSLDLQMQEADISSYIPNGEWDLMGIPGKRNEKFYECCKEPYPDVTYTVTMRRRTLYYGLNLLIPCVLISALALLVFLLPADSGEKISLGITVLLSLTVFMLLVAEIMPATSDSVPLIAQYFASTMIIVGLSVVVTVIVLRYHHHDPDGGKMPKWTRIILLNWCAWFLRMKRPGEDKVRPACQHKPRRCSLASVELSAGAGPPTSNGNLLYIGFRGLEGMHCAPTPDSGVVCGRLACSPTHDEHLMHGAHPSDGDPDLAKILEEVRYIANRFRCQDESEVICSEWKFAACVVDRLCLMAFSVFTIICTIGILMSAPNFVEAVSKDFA

[2] = biological target: Neuronal acetylcholine receptor subunit alpha-7 (Homo sapiens) (UniProt P36544); experiment: Activity at alpha-7 nAChR assessed as stimulation of relative inward current in cultured hippocampal neurons relative to choline; format: functional, tissue-based; conditions: Hippocampus, filed as agonist
Chain of Neuronal acetylcholine receptor subunit alpha-7 (Homo sapiens) (P36544 whole entry): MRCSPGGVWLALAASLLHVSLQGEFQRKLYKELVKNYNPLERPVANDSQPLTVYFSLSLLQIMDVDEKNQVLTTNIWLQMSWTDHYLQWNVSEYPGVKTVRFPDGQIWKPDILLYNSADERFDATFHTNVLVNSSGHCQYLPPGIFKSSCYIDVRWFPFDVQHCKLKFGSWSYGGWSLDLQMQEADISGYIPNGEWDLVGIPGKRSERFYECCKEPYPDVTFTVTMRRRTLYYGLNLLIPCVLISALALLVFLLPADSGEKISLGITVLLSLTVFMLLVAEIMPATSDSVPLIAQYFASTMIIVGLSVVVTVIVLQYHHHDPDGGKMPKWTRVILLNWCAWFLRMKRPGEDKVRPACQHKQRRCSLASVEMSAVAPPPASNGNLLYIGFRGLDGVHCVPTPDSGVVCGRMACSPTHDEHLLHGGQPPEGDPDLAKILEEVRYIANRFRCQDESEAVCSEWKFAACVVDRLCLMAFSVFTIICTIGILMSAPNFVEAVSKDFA

Chain of Cytochrome P450 2D6 (P10635 whole entry): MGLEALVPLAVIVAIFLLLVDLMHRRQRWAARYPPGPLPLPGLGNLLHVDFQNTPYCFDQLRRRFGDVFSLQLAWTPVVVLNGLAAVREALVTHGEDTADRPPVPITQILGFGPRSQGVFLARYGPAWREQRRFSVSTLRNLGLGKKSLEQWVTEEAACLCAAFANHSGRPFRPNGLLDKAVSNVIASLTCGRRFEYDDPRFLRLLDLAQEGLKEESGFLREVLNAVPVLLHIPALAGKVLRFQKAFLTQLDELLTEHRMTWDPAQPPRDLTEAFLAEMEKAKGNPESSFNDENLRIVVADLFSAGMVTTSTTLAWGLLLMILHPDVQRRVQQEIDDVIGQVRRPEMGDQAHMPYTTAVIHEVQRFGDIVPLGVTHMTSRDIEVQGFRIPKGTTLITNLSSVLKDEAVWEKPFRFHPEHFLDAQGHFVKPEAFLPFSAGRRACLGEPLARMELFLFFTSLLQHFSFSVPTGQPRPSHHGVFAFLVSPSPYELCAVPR
Chain of Cytochrome P450 2C9 (P11712 whole entry): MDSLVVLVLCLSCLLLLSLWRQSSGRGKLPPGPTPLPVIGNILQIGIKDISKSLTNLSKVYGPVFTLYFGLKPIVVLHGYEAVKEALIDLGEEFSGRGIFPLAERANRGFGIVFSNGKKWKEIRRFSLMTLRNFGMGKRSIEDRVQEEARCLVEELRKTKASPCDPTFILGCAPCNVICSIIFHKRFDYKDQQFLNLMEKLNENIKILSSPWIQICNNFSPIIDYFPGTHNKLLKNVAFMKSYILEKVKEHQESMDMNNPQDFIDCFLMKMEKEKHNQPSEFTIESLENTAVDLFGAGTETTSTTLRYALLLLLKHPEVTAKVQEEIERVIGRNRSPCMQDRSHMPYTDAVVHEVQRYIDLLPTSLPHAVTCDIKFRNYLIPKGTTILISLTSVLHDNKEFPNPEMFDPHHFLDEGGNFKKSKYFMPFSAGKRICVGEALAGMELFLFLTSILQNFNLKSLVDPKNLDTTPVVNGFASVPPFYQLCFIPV
Chain of Cytochrome P450 2C19 (P33261 whole entry): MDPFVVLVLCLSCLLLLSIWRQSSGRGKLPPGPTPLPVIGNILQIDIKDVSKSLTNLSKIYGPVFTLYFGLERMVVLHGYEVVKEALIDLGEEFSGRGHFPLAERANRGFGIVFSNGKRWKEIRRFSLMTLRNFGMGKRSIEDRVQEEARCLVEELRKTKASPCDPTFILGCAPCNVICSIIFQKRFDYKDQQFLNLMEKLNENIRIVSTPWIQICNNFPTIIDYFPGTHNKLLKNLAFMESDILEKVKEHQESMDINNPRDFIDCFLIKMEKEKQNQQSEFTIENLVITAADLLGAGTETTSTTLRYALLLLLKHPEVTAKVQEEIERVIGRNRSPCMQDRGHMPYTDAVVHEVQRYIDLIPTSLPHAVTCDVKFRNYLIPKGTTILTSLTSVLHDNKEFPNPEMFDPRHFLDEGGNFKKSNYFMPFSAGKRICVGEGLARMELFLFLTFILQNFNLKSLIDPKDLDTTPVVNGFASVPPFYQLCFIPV
Chain of Cytochrome P450 1A2 (P05177 whole entry): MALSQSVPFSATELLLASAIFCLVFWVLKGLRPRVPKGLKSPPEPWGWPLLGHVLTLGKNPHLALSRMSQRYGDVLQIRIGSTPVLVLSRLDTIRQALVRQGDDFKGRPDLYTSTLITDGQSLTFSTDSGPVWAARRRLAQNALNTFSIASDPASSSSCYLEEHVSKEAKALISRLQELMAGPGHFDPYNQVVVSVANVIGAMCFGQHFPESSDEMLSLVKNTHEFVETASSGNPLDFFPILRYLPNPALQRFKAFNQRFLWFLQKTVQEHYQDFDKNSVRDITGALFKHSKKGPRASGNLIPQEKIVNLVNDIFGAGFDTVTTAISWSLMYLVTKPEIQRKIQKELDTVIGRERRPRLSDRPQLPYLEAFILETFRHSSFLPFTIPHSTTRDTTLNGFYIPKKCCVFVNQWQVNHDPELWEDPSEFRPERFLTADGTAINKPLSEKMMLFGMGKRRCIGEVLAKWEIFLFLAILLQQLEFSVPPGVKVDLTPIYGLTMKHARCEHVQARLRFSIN

**Q.** For `O=C1O[C@]2(CN3CCC2CC3)CN1c1ccc(Cl)s1`, which IC50 (Cytochrome P450 2D6) is on record?
**A.** The IC50 was 2000 nM.

**Q.** And the Activity (Cytochrome P450 1A2)?
**A.** Its Activity is “Not Active”.

**Q.** What about the Activity (Cytochrome P450 2C19) of the same molecule?
**A.** Its Activity is “Not Active”.

**Q.** And the Activity (Cytochrome P450 2C9)?
**A.** Its Activity is “Not Active”.

**Q.** And the Activity (Cytochrome P450 3A4)?
**A.** The Activity was “Not Active”.

**Q.** For `Cc1oc2ccc(N3C[C@@]4(CN5CCC4CC5)OC3=O)cc2c1Br`, which Ki [1] is on record?
**A.** Its Ki is 11 nM.

**Q.** With `CCc1c(C)oc2ccc(N3C[C@@]4(CN5CCC4CC5)OC3=O)cc12` as the molecule, how does the Ki [1] read?
**A.** The Ki was 15 nM.

**Q.** `O=C1NCC2(CN3CCC2CC3)O1` (single isomer, unassigned) was tested. Which Activity [2] did it give?
**A.** The Activity was “Agonist”.

**Q.** Which Ki [1] does the source give for `O=C1O[C@]2(CN3CCC2CC3)CN1c1ccc2c(c1)CCO2` here?
**A.** Its Ki is 85 nM.

**Q.** How did the IC50 (Cytochrome P450 2D6) turn out when `O=C1O[C@@]2(CN3CCC2CC3)CN1c1ccc(Br)s1` was run?
**A.** Its IC50 is 9000 nM.

**Q.** And the Ki [1]?
**A.** Its Ki is 4 nM.

— ChEMBL document CHEMBL1138068 (J Med Chem, 2006)
